Measurements published in doi:10.1101/2022.11.06.515312v1 (biorxiv, 2022).

Columns and labels:
Settings in all cases: 5-50 uM substrate, 1 h, 0.333 mM MES pH 5.7, 2% galactose
OsLAT1 = target: T1, OsLAT1 (Oryza sativa, UniProt Q6Z8D0); assay: uptake into yeast, UPLC-MS/MS, vector control subtracted
T1 sequence (Q6Z8D0 1-531): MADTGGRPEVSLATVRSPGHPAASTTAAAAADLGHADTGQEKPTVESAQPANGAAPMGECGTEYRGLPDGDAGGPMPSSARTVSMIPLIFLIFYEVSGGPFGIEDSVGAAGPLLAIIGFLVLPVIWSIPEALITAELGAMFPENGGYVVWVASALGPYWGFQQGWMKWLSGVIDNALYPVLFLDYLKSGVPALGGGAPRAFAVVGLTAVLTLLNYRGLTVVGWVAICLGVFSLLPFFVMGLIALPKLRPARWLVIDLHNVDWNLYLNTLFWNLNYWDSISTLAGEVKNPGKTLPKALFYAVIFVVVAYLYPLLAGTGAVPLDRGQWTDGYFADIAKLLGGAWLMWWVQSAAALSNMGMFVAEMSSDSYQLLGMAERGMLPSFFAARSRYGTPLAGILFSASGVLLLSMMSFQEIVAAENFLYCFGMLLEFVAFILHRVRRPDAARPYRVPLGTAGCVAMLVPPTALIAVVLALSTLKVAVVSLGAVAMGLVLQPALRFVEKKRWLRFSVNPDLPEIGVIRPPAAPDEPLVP

OsLAT5 = assay: as above; type: cell-based, Oryza sativa subsp. japonica
[1] = substrate: c1cc[n+]2c(c1)-c1cccc[n+]1CC2; assay: cells, lysate or membranes

Molecule | Km (OsLAT1) [µM] | Km (OsLAT5) [µM] | Km [1] [µM]
C[n+]1ccc(-c2cc[n+](C)cc2)cc1 [paraquat] | 40.8 ± 9.61 | 11.7 ± 4.04 | –
c1cc[n+]2c(c1)-c1cccc[n+]1CC2 [diquat, 1,10-ethylene-2,20-bipyridinium dibromide] | – | 13.8 ± 3.24 | –
OsLAT1 (Oryza sativa Japonica Group) (protein) MADTGGRPEVSLATVRSPGHPAASTTAAAAADLGHADTGQEKPTVESAQPANGAAPMGECGTEYRGLPDGDAGGPMPSSARTVSMIPLIFLIFYEVSGGPFGIEDSVGAAGPLLAIIGFLVLPVIWSIPEALITAELGAMFPENGGYVVWVASALGPYWGFQQGWMKWLSGVIDNALYPVLFLDYLKSGVPALGGGAPRAFAVVGLTAVLTLLNYRGLTVVGWVAICLGVFSLLPFFVMGLIALPKLRPARWLVIDLHNVDWNLYLNTLFWNLNYWDSISTLAGEVKNPGKTLPKALFYAVIFVVVAYLYPLLAGTGAVPLDRGQWTDGYFADIAKLLGGAWLMWWVQSAAALSNMGMFVAEMSSDSYQLLGMAERGMLPSFFAARSRYGTPLAGILFSASGVLLLSMMSFQEIVAAENFLYCFGMLLEFVAFILHRVRRPDAARPYRVPLGTAGCVAMLVPPTALIAVVLALSTLKVAVVSLGAVAMGLVLQPALRFVEKKRWLRFSVNPDLPEIGVIRPPAAPDEPLVP | – | – | 23.98 ± 6.77
